In ChEMBL document CHEMBL4715865, “Antimyeloma Potential of Caffeic Acid Phenethyl Ester and Its Analogues through Sp1 Mediated Downregulation of IKZF1-IRF4-MYC Axis” (J Nat Prod, 2020):
Active and inactive are the calls of the source. The calls are words filed in the database; no cut-off is given here.

Columns and labels:
[1] = test system: KMM-1; experiment: (§1) Growth inhibition of human KMM-1 cells at 10 uM after 48 hrs by PrestoBlue cell viability assay relative to control; assay type: functional
[2] = Induction of apoptosis in human KMM-1 cells assessed as early apoptotic cells at 10 uM after 72 hrs by Annexin V/PropidiumIodide staining based flow cytometric analysis (reference value: 1 +/- 0.4%); assay type: functional
[3] = Induction of apoptosis in human KMM-1 cells assessed as late apoptotic cells at 10 uM after 72 hrs by Annexin V/PropidiumIodide staining based flow cytometric analysis (reference value: 4 +/- 0.5%); assay type: functional
[4] = Induction of apoptosis in human KMM-1 cells assessed as early apoptotic cells at 25 uM after 72 hrs by Annexin V/PropidiumIodide staining based flow cytometric analysis (reference value: 1 +/- 0.4%); assay type: functional
[5] = test system: MM.1R; experiment: Induction of apoptosis in human MM1.R cells assessed as increase in cleaved caspace-8 protein expression at 5 to 25 uM after 48 hrs by immunoblotting analysis; assay type: functional, cell-based; conditions: dose 5-25 µM
[6] = test system: IMR-32; experiment: Cytotoxicity against human IMR-32 cells assessed as reduction in cell viability after 48 hrs by MTT assay; assay type: functional, cell-based; conditions: IMR-32, 48 h
[7] = Growth inhibition of human MM1.R cells after 48 hrs by PrestoBlue cell viability assay; assay type: functional; conditions: MM.1R
[8] = Growth inhibition of human KMM-1 cells at 25 uM after 48 hrs by PrestoBlue cell viability assay relative to control; assay type: functional; conditions: read-out: GI
[9] = Growth inhibition of human KMM-1 cells after 48 hrs by PrestoBlue cell viability assay; assay type: functional, cell-based; conditions: KMM-1, 48 h
[10] = Growth inhibition of human KMM-1 cells at 50 uM after 48 hrs by PrestoBlue cell viability assay relative to control; assay type: functional; conditions: read-out: GI
[11] = Cytotoxicity against human Mononuclear cells assessed as reduction in cll viability at 25 to 50 uM after 48 hrs by PrestoBlue cell viability assay; assay type: cell-based; conditions: mononuclear cell line, dose 25-50 µM
[12] = test system: B cell; experiment: Cytotoxicity against human naive B cells assessed as reduction in cll viability at 25 to 50 uM after 48 hrs by PrestoBlue cell viability assay; assay type: cell-based; conditions: dose 25-50 µM
[13] = Induction of apoptosis in human KMM-1 cells assessed as viable cells at 10 uM after 72 hrs by Annexin V/PropidiumIodide staining based flow cytometric analysis (reference value: 87 +/- 1%); assay type: functional; conditions: read-out: Activity
[14] = Down regulation of IRF4 protein expression in human KMM-1 cells at 50 uM incubated for 48 hrs by 48 hrs by immunoblotting analysis relative to control; assay type: functional
[15] = test system: KMM-1; experiment: Growth inhibition of human KMM-1 cells at 1 to 100 uM after 72 hrs by PrestoBlue cell viability assay; assay type: functional, cell-based; conditions: dose 1-100 µM
[16] = Induction of apoptosis in human KMM-1 cells assessed as apoptotic cells at 10 uM after 72 hrs by Annexin V/PropidiumIodide staining based flow cytometric analysis relative to control; assay type: functional
[17] = Induction of apoptosis in human KMM-1 cells assessed as necrotic cells at 10 uM after 72 hrs by Annexin V/PropidiumIodide staining based flow cytometric analysis (reference value: 8 +/-1%); assay type: functional
[18] = test system: JJN-3; experiment: Down regulation of SP1 protein expression in human JJN-3 cells at 10 uM after 48 hrs by immunoblotting analysis; assay type: functional, cell-based
[19] = Induction of apoptosis in human KMM-1 cells assessed as late apoptotic cells at 25 uM after 72 hrs by Annexin V/PropidiumIodide staining based flow cytometric analysis (reference value: 4 +/- 0.5%); assay type: functional
[20] = test system: MM.1R; experiment: Down regulation of SP1 protein expression in human MM1.R cells at 10 uM after 48 hrs by immunoblotting analysis; assay type: functional, cell-based
[21] = Induction of apoptosis in human MM1.R cells assessed as apoptotic cells at 10 uM after 72 hrs by Annexin V/PropidiumIodide staining based flow cytometric analysis relative to control; assay type: functional, MM.1R
[22] = test system: A549; experiment: Cytotoxicity against human A549 cells assessed as reduction in cell viability after 48 hrs by MTT assay; assay type: functional, cell-based; conditions: A549, 48 h
[23] = test system: JJN-3; experiment: Growth inhibition of human JJN-3 cells after 48 hrs by PrestoBlue cell viability assay; assay type: functional, cell-based; conditions: JJN-3, 48 h
[24] = test system: KMM-1; experiment: Growth inhibition of human KMM-1 cells at 1 to 10 uM after 48 hrs by PrestoBlue cell viability assay; assay type: functional, cell-based; conditions: dose 1-10 µM
[25] = Induction of apoptosis in human KMM-1 cells assessed as necrotic cells at 25 uM after 72 hrs by Annexin V/PropidiumIodide staining based flow cytometric analysis (reference value: 8 +/-1%); assay type: functional
[26] = test system: KMM-1; experiment: Growth inhibition of human KMM-1 cells assessed as induction morphological changes at 25 to 50 uM after 48 hrs by phase contrast microscopic method; assay type: functional, cell-based; conditions: dose 25-50 µM
[27] = Induction of apoptosis in human KMM-1 cells assessed as viable cells at 25 uM after 72 hrs by Annexin V/PropidiumIodide staining based flow cytometric analysis (reference value: 87 +/- 1%); assay type: functional; conditions: read-out: Activity
[28] = test system: KMM-1; experiment: Down regulation of IRF4 mRNA expression in human KMM-1 cells at 50 uM incubated for 48 hrs by 48 hrs by RT-PCR analysis; assay type: functional, cell-based
[29] = test system: MM.1R; experiment: Down regulation of IRF4 protein expression in human MM1.R cells at 10 to 50 uM after 48 hrs by immunoblotting analysis; assay type: functional, cell-based; conditions: dose 10-50 µM
[30] = test system: B cell; experiment: Cytotoxicity against human naive B cells assessed as reduction in cll viability at 10 uM after 48 hrs by PrestoBlue cell viability assay; assay type: cell-based
[31] = Cytotoxicity against human Mononuclear cells assessed as reduction in cll viability at 10 uM after 48 hrs by PrestoBlue cell viability assay; assay type: cell-based; conditions: mononuclear cell line
[32] = Growth inhibition of human KMM-1 cells at 10 to 100 uM after 72 hrs by PrestoBlue cell viability assay relative to control; assay type: functional; conditions: dose 10-100 µM
[33] = test system: JJN-3; experiment: Down regulation of IKZF1 protein expression in human JJN-3 cells at 10 to 50 uM after 48 hrs by immunoblotting analysis; assay type: functional, cell-based; conditions: dose 10-50 µM
[34] = test system: MM.1R; experiment: Down regulation of IKZF1 protein expression in human MM1.R cells at 10 to 50 uM after 48 hrs by immunoblotting analysis; assay type: functional, cell-based; conditions: dose 10-50 µM
[35] = test system: MM.1R; experiment: Down regulation of IKZF3 protein expression in human MM1.R cells at 10 to 50 uM after 48 hrs by immunoblotting analysis; assay type: functional, cell-based; conditions: dose 10-50 µM
[36] = as §1; assay type: functional; conditions: read-out: GI
[37] = Growth inhibition of human MM1.R cells at 100 uM after 48 hrs by PrestoBlue cell viability assay relative to control; assay type: functional; conditions: MM.1R, read-out: GI
[38] = test system: JJN-3; experiment: Down regulation of IRF4 protein expression in human JJN-3 cells at 10 to 50 uM after 48 hrs by immunoblotting analysis; assay type: functional, cell-based; conditions: dose 10-50 µM
[39] = test system: MM.1R; experiment: Down regulation of SP1 protein expression in human MM1.R cells at 25 uM after 48 hrs by immunoblotting analysis; assay type: functional, cell-based
[40] = test system: MM.1R; experiment: Induction of apoptosis in human MM1.R cells at 10 uM after 48 hrs by Annexin V/Propidium Iodide flow cytometric analysis; assay type: functional, cell-based
[41] = test system: KMM-1; experiment: Down regulation of Bob-1 protein expression in human KMM-1 cells at 50 uM after 48 hrs by immunoblotting analysis; assay type: functional, cell-based
[42] = Induction of apoptosis in human KMM-1 cells assessed as increase in cleaved caspace-3 expression at 50 uM after 48 hrs by immunoblotting analysis; assay type: functional
[43] = test system: KMM-1; experiment: Down regulation of cyclin D3 expression in human KMM-1 cells after 48 hrs by immunoblotting analysis; assay type: functional, cell-based; conditions: dose 5-50 µM
[44] = test system: JJN-3; experiment: Down regulation of IKZF1 protein expression in human JJN-3 cells at 50 uM after 48 hrs by immunoblotting analysis; assay type: functional, cell-based
[45] = test system: JJN-3; experiment: Down regulation of SP1 protein expression in human JJN-3 cells at 25 uM after 48 hrs by immunoblotting analysis; assay type: functional, cell-based
[46] = test system: JJN-3; experiment: Down regulation of IRF4 protein expression in human JJN-3 cells at 50 uM after 48 hrs by immunoblotting analysis; assay type: functional, cell-based
[47] = test system: KMM-1; experiment: Down regulation of OCT2 protein expression in human KMM-1 cells at 50 uM after 48 hrs by immunoblotting analysis; assay type: functional, cell-based
[48] = Potency index, ratio of lenalidomide IC50 to test compound IC50 for growth inhibition of human KMM-1 cells; assay type: functional
[49] = test system: JJN-3; experiment: Induction of apoptosis in human JJN-3 cells assessed as increase in cleaved caspace-8 protein expression at 10 to 50 uM after 48 hrs by […]; assay type: functional, cell-based; conditions: dose 10-50 µM
[50] = test system: MM.1R; experiment: Down regulation of MYC protein expression in human MM1.R cells at 5 to 10 uM after 48 hrs by immunoblotting analysis; assay type: functional, cell-based; conditions: dose 5-10 µM
[51] = test system: MM.1R; experiment: Down regulation of IKZF1 protein expression in human MM1.R cells at 5 to 10 uM after 48 hrs by immunoblotting analysis; assay type: functional, cell-based; conditions: dose 5-10 µM
[52] = test system: MM.1R; experiment: Induction of apoptosis in human MM1.R cells assessed as increase in cleaved caspace-8 protein expression at 10 uM after 48 hrs by immunoblotting analysis; assay type: functional, cell-based
[53] = test system: MM.1R; experiment: Down regulation of IKZF3 protein expression in human MM1.R cells at 5 to 10 uM after 48 hrs by immunoblotting analysis; assay type: functional, cell-based; conditions: dose 5-10 µM
[54] = test system: JJN-3; experiment: Down regulation of IKZF1 protein expression in human JJN-3 cells at 10 to 100 uM after 48 hrs in presence of TMP by immunoblotting analysis; assay type: functional, cell-based; conditions: dose 10-100 µM
[55] = test system: JJN-3; experiment: Down regulation of IRF4 protein expression in human JJN-3 cells at 10 to 100 uM after 48 hrs in presence of TMP by immunoblotting analysis; assay type: functional, cell-based; conditions: dose 10-100 µM

COc1cc(/C=C/C(=O)OCCc2ccccc2)cc(OC)c1O
growth inhibition (GI) [1]: inactive

O=C(/C=C/c1ccc(O)c(O)c1)OCCc1ccccc1 [CAFFEIC ACID PHENETHYL ESTER]
Activity [2]: 3%
Activity [3]: 9%
Activity [4]: 4%
Activity [5]: Active
IC50 [6]: 5 µM
IC50 [7]: 17.8 µM
inhibition of growth at 25 µM [8]: 38.7%
IC50 [9]: 37.5 µM
inhibition of growth at 50 µM [10]: 59%
Activity [11]: Non-Toxic
Activity [12]: Non-Toxic
viability at 10 µM [13]: 71%
Activity [14]: 26%
growth inhibition (GI) [15]: Active
Activity [16]: 25.8%
Activity [17]: 17%
Activity [18]: Active
Activity [19]: 15%
Activity [20]: Active
Activity [21]: 41%
IC50 [22]: 80 µM
IC50 [23]: 30 µM
growth inhibition (GI) [24]: Active
Activity [25]: 31%
growth inhibition (GI) [26]: Active
viability at 25 µM [27]: 51%
Activity [28]: Active

O=C(/C=C/c1ccc(O)cc1O)OCCCc1ccccc1
growth inhibition (GI) [1]: inactive

Nc1cccc2c1CN(C1CCC(=O)NC1=O)C2=O (stereo not given) [LENALIDOMIDE]
Activity [2]: 4%
Activity [29]: inactive
Activity [30]: Non-Toxic
Activity [3]: 6%
Activity [31]: Non-Toxic
growth inhibition (GI) [32]: >25%
Activity [33]: Active
Activity [34]: Active
Activity [35]: inactive
viability at 10 µM [13]: 78%
inhibition of growth at 10 µM [36]: 7.5%
inhibition of growth at 100 µM [37]: 47%
Activity [16]: 17.4%
Activity [17]: 12%
Activity [21]: 46%
Activity [38]: Active

O=C(/C=C/c1ccc(O)c(O)c1)OCCCc1ccccc1
Activity [2]: 4%
Activity [39]: Active
Activity [3]: 14%
Activity [4]: 7%
Activity [40]: Active
Activity [5]: Active
Activity [41]: Active
IC50 [7]: 4.9 µM
inhibition of growth at 25 µM [8]: 58.3%
IC50 [9]: 12 µM
inhibition of growth at 50 µM [10]: 80%
Activity [11]: Non-Toxic
Activity [12]: Non-Toxic
fold change (FC) [42]: 2.9
viability at 10 µM [13]: 55%
Activity [43]: Dose-dependent effect
inhibition of growth at 10 µM [36]: 28%
Activity [44]: Active
Activity [14]: 62%
growth inhibition (GI) [15]: Active
Activity [16]: 40.4%
Activity [17]: 27%
Activity [19]: 17.2%
Activity [45]: Active
Activity [21]: 30%
IC50 [23]: 6.7 µM
Activity [46]: Active
Activity [25]: 43%
Activity [47]: Active
viability at 25 µM [27]: 32%
Activity [28]: Active

COc1cc(/C=C/C(=O)OCCCc2ccccc2)ccc1O
growth inhibition (GI) [1]: inactive

O=C(/C=C/c1cc(O)ccc1O)OCCCc1ccccc1
Ratio IC50 [48]: 12
Activity [49]: Active
Activity [40]: Active
IC50 [7]: 0.6 µM
Activity [50]: Active
IC50 [9]: 1.9 µM
inhibition of growth at 10 µM [36]: 89.7%
Activity [51]: Active
Activity [16]: 64.5%
Activity [18]: Active
Activity [20]: Active
Activity [52]: Active
Activity [21]: 54%
IC50 [23]: 3.9 µM
Activity [53]: Active
Activity [54]: Active
Activity [55]: Active

COc1cc(/C=C/C(=O)OCCc2ccccc2)ccc1O
growth inhibition (GI) [1]: inactive
